# Measurements reported in PubChem BioAssay AID330 (DTP/NCI, 2004).
# Several values for one entry are separate records, joined by “and”; a condition that tells them apart may be missing. Equal values may be shown once. Inconclusive results and toxic doses are left out.
# System: P388 leukemia ip, CD2F1 mice, survival T/C
# Test: NCI In Vivo Anticancer Drug Screen. Data for tumor model P388 Leukemia (intraperitoneal) in CD2F1 (CDF1) mice
# Details: endpoint: median survival time, higher = longer survival
# Summary of the method: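 Mice carrying the transplanted tumor received test compound or vehicle. Survival was recorded in each group, and the value is the treated-group measurement divided by that of the vehicle-treated control group.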
# [1] = dose: 25.0 mg/kg/injection, schedule: Q01DX009 (ip), vehicle: saline with Tween-80
# [2] = dose: 50.0 mg/kg/injection, schedule: Q01DX009 (ip), vehicle: saline
# [3] = dose: 100.0 mg/kg/injection, schedule: Q01DX009 (ip), vehicle: saline
# [4] = dose: 1.56 mg/kg/injection, schedule: Q01DX009 (ip), vehicle: saline
# [5] = dose: 3.12 mg/kg/injection, schedule: Q01DX009 (ip), vehicle: saline
# [6] = dose: 6.25 mg/kg/injection, schedule: Q01DX009 (ip), vehicle: saline
# [7] = dose: 100.0 mg/kg/injection, schedule: Q01DX009 (ip), vehicle: saline with Tween-80
# [8] = dose: 200.0 mg/kg/injection, schedule: Q01DX009 (ip), vehicle: saline with Tween-80
compound,measurement,setting,value
CC(C)(NC(=O)OCc1ccccc1)C(=O)n1cc(CC(C(=O)OCc2ccccc2)n2cnc3ccccc3c2=O)c2ccccc21 (stereo unspecified),T/C,"dose: 8.75 mg/kg/injection, schedule: Q01DX005 (ip), vehicle: Klucel (hydroxypropylcellulose) (HPC)",96 % of control
same,T/C,"dose: 17.5 mg/kg/injection, schedule: Q01DX005 (ip), vehicle: Klucel (hydroxypropylcellulose) (HPC)",100 % of control
same,T/C,"dose: 35.0 mg/kg/injection, schedule: Q01DX005 (ip), vehicle: Klucel (hydroxypropylcellulose) (HPC)",99 % of control
CN1C(=O)NC(=O)C(C)(C2(Br)CCCCC2)C1=O (stereo unspecified),T/C,"dose: 100.0 mg/kg/injection, schedule: Q01DX001 (ip), vehicle: Klucel (hydroxypropylcellulose) (HPC)",106 % of control
same,T/C,"dose: 200.0 mg/kg/injection, schedule: Q01DX001 (ip), vehicle: Klucel (hydroxypropylcellulose) (HPC)",99 % of control
same,T/C,"dose: 400.0 mg/kg/injection, schedule: Q01DX001 (ip), vehicle: Klucel (hydroxypropylcellulose) (HPC)",99 % of control
CC1=C(Br)C(c2ccccc2)=Nc2ccccc2N1,T/C,"dose: 12.5 mg/kg/injection, schedule: Q01DX009 (ip), vehicle: saline with Tween-80",123 % of control
same,T/C,[1],116 % of control
same,T/C,[2],119 % of control
same,T/C,[3],110 % of control
CCCCCCOc1cccc(OCCCC[N+]2(CC)CCCCC2)c1,T/C,[4],96 % of control
same,T/C,[5],105 % of control
same,T/C,[6],91 % of control
NS(=O)(=O)c1ccc2c(=O)c(C(=O)O)c[nH]c2c1,T/C,[4],98 % of control
same,T/C,[5],92 % of control
same,T/C,[6],92 % of control
same,T/C,[2],101 % of control
same,T/C,[3],96 % of control
FC(F)(F)c1ccc2c(c1)Nc1ccccc1S2,T/C,"dose: 12.5 mg/kg/injection, schedule: Q04DX003 (ip), vehicle: Klucel (hydroxypropylcellulose) (HPC)",100 % of control and 105 % of control
same,T/C,"dose: 25.0 mg/kg/injection, schedule: Q04DX003 (ip), vehicle: Klucel (hydroxypropylcellulose) (HPC)",103 % of control
same,T/C,"dose: 50.0 mg/kg/injection, schedule: Q04DX003 (ip), vehicle: Klucel (hydroxypropylcellulose) (HPC)",108 % of control and 109 % of control
same,T/C,"dose: 100.0 mg/kg/injection, schedule: Q04DX003 (ip), vehicle: Klucel (hydroxypropylcellulose) (HPC)",108 % of control and 118 % of control
same,T/C,"dose: 200.0 mg/kg/injection, schedule: Q04DX003 (ip), vehicle: Klucel (hydroxypropylcellulose) (HPC)",114 % of control and 116 % of control
O=C1c2ccccc2C(=O)C1C(=Nc1ccc(F)cc1)c1ccccc1,T/C,"dose: 50.0 mg/kg/injection, schedule: Q01DX005 (ip), vehicle: Klucel (hydroxypropylcellulose) (HPC)",103 % of control
same,T/C,"dose: 100.0 mg/kg/injection, schedule: Q01DX005 (ip), vehicle: Klucel (hydroxypropylcellulose) (HPC)",103 % of control
same,T/C,"dose: 200.0 mg/kg/injection, schedule: Q01DX005 (ip), vehicle: Klucel (hydroxypropylcellulose) (HPC)",99 % of control
OC(Cc1cccnc1)(c1ccccc1)c1ccccc1,T/C,"dose: 50.0 mg/kg/injection, schedule: Q01DX009 (ip), vehicle: Klucel (hydroxypropylcellulose) (HPC)",111 % of control
same,T/C,"dose: 100.0 mg/kg/injection, schedule: Q01DX009 (ip), vehicle: Klucel (hydroxypropylcellulose) (HPC)",109 % of control
same,T/C,"dose: 200.0 mg/kg/injection, schedule: Q01DX009 (ip), vehicle: Klucel (hydroxypropylcellulose) (HPC)",118 % of control
CCN(CC)CCCOc1ncnc2ccc(Cl)cc12,T/C,"dose: 25.0 mg/kg/injection, schedule: Q01DX005 (ip), vehicle: saline",98 % of control
same,T/C,"dose: 50.0 mg/kg/injection, schedule: Q01DX005 (ip), vehicle: saline",99 % of control
same,T/C,"dose: 100.0 mg/kg/injection, schedule: Q01DX005 (ip), vehicle: saline",93 % of control
same,T/C,"dose: 200.0 mg/kg/injection, schedule: Q01DX005 (ip), vehicle: saline",96 % of control
CCn1c2ccc([N+](=O)[O-])cc2c2c([N+](=O)[O-])c(NC(C)=O)ccc21,T/C,"dose: 50.0 mg/kg/injection, schedule: Q01DX005 (ip), vehicle: saline with Tween-80",93 % of control
same,T/C,"dose: 100.0 mg/kg/injection, schedule: Q01DX005 (ip), vehicle: saline with Tween-80",95 % of control
same,T/C,"dose: 200.0 mg/kg/injection, schedule: Q01DX005 (ip), vehicle: saline with Tween-80",92 % of control
O=S(=O)(O)C(F)(F)F,T/C,"dose: 25.0 mg/kg/injection, schedule: Q01DX005 (ip), vehicle: water",101 % of control
same,T/C,"dose: 50.0 mg/kg/injection, schedule: Q01DX005 (ip), vehicle: water",100 % of control
same,T/C,"dose: 200.0 mg/kg/injection, schedule: Q01DX005 (ip), vehicle: water",100 % of control
CN(CCCN(C)N=Nc1ccccc1C(=O)O)N=Nc1ccccc1C(=O)O,T/C,[7],86 % of control
same,T/C,[8],90 % of control
COc1cc(C(=O)O)c2c(c1C)OC(=O)c1c(C)cc(O)c(C=O)c1O2,T/C,[6],119 % of control
same,T/C,"dose: 12.5 mg/kg/injection, schedule: Q01DX009 (ip), vehicle: saline",119 % of control
same,T/C,"dose: 25.0 mg/kg/injection, schedule: Q01DX009 (ip), vehicle: saline",100 % of control
same,T/C,"dose: 26.0 mg/kg/injection, schedule: Q04DX003 (ip), vehicle: saline",116 % of control
same,T/C,"dose: 40.0 mg/kg/injection, schedule: Q04DX003 (ip), vehicle: saline",112 % of control
same,T/C,"dose: 60.0 mg/kg/injection, schedule: Q04DX003 (ip), vehicle: saline",119 % of control
O=C(O)C(Oc1ccc(Cl)cc1Cl)C(Oc1ccc(Cl)cc1Cl)C(=O)O (stereo unspecified),T/C,"dose: 60.0 mg/kg/injection, schedule: Q01DX005 (ip), vehicle: Klucel (hydroxypropylcellulose) (HPC)",101 % of control
same,T/C,"dose: 120.0 mg/kg/injection, schedule: Q01DX005 (ip), vehicle: Klucel (hydroxypropylcellulose) (HPC)",101 % of control
same,T/C,"dose: 240.0 mg/kg/injection, schedule: Q01DX005 (ip), vehicle: Klucel (hydroxypropylcellulose) (HPC)",100 % of control
COC1C(N)C(OC2C(Oc3cccc4c(O)c5c(=O)oc6ccc(C)c7c(=O)oc(c34)c5c67)OC(C)C(O)C2(C)O)OC(C)C1O (stereo unspecified),T/C,"dose: 0.63 mg/kg/injection, schedule: Q01DX009 (ip), vehicle: other",183 % of control
same,T/C,"dose: 1.25 mg/kg/injection, schedule: Q01DX009 (ip), vehicle: other",198 % of control
same,T/C,"dose: 2.5 mg/kg/injection, schedule: Q01DX009 (ip), vehicle: other",202 % of control
same,T/C,"dose: 5.0 mg/kg/injection, schedule: Q01DX009 (ip), vehicle: other",276 % of control
CCO,T/C,"dose: 250.0 mg/kg/injection, schedule: Q01DX009 (ip), vehicle: saline with Tween-80",95 % of control
same,T/C,"dose: 0.5 % in 0.5 ml injection vol, schedule: Q01DX009 (ip), vehicle: water",94 % of control
same,T/C,"dose: 500.0 mg/kg/injection, schedule: Q01DX009 (ip), vehicle: saline with Tween-80",90 % of control
same,T/C,"dose: 1.0 % in 0.5 ml injection vol, schedule: Q01DX009 (ip), vehicle: water",92 % of control
same,T/C,"dose: 1000.0 mg/kg/injection, schedule: Q01DX009 (ip), vehicle: saline with Tween-80",95 % of control
same,T/C,"dose: 2.0 % in 0.5 ml injection vol, schedule: Q01DX009 (ip), vehicle: water",102 % of control and 94 % of control
same,T/C,"dose: 2000.0 mg/kg/injection, schedule: Q01DX009 (ip), vehicle: saline with Tween-80",95 % of control
same,T/C,"dose: 4.0 % in 0.5 ml injection vol, schedule: Q01DX009 (ip), vehicle: water",101 % of control and 106 % of control
same,T/C,"dose: 8.0 % in 0.5 ml injection vol, schedule: Q01DX009 (ip), vehicle: water",100 % of control and 103 % of control
same,T/C,"dose: 16.0 % in 0.5 ml injection vol, schedule: Q01DX009 (ip), vehicle: water",100 % of control
C1OC1CO[C@H]1CO[C@H]2[C@@H]1OC[C@@H]2OCC1CO1 (stereo partly specified),T/C,"dose: 600.0 mg/kg/injection, schedule: Q04DX003 (ip), vehicle: saline",172 % of control
CC(C)CC(NC(=O)C(N)Cc1c[nH]c2ccccc12)C(=O)O (stereo unspecified),T/C,[2],96 % of control
same,T/C,[3],95 % of control
same,T/C,"dose: 200.0 mg/kg/injection, schedule: Q01DX009 (ip), vehicle: saline",118 % of control
c1ccc(N=c2cnc3c(ccc4ccccc43)o2)cc1,T/C,"dose: 3.75 mg/kg/injection, schedule: Q01DX005 (ip), vehicle: saline with Tween-80",102 % of control
same,T/C,"dose: 7.5 mg/kg/injection, schedule: Q01DX005 (ip), vehicle: saline with Tween-80",112 % of control
same,T/C,"dose: 15.0 mg/kg/injection, schedule: Q01DX005 (ip), vehicle: saline with Tween-80",107 % of control and 116 % of control
same,T/C,"dose: 60.0 mg/kg/injection, schedule: Q01DX005 (ip), vehicle: saline with Tween-80",115 % of control
O=C1CCCc2c1[nH]c1ccccc21,T/C,[1],100 % of control
same,T/C,"dose: 50.0 mg/kg/injection, schedule: Q01DX009 (ip), vehicle: saline with Tween-80",105 % of control
same,T/C,[7],108 % of control
same,T/C,[8],104 % of control
